Format in all cases: cell-based
The subject of assay [1] is SkBr3 (Her2 overexpressing breast cancer cells). The assay can be described thus: Anti-proliferation activity against SkBr3 cells (MTS/PMS). Conditions: Homo sapiens, SK-BR-3; Table 4, biaryl analogues; n = 3; read-out: IC50 SkBr3. A digest of the protocol:
(§1)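 Cells seeded at 2000/well, attached overnight, then exposed to compound at varying concentrations (1% DMSO final) for 72 hours at 37° C. Viable cells read by MTS/PMS, normalised to 1% DMSO as 100% proliferation. IC50 from separate triplicate experiments.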

Assay [2] has as its system MCF-7 (estrogen receptor positive breast cancer cells). The assay can be described thus: Anti-proliferation activity against MCF-7 cells (MTS/PMS). The note with it: Homo sapiens, MCF7; Table 4, biaryl analogues; n = 3; read-out: IC50 MCF-7. Summed up: as §1
For assay [3], the system named is HCT-116 (colon cancer cells characterized by wild-type p53). The assay can be described thus: Anti-proliferation activity against HCT-116 cells. Conditions: Homo sapiens, Table 4, biaryl analogues, n = 3. As for the experimental part:
(§2) Upon completion of synthesis of library of compounds in Examples 23 and 24, the compounds were evaluated for anti-proliferative activity against SkBr3 (Her2 overexpressing breast cancer cells), MCF-7 (estrogen receptor positive breast cancer cells), HCT-116 (colon cancer cells characterized by wild-type p53), PL45 (pancreatic cancer cells), LNCaP (androgen sensitive prostate cancer cells) and PC-3 (androgen independent prostate cancer cells) cell lines. […] The monosubstituted benzamide variants improved activity.

In assay [4] the test system is PL45 (pancreatic cancer cells). The assay can be described thus: Anti-proliferation activity against PL45 cells. Conditions: Table 4, biaryl analogues, n = 3. As for the experimental part: as §2
The subject of assay [5] is LNCaP (androgen sensitive prostate cancer cells). The assay can be described thus: Anti-proliferation activity against LNCaP cells. The note with it: Homo sapiens, LNCaP; Table 4, biaryl analogues; n = 3; read-out: IC50 LNCaP. A digest of the protocol: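 Cells seeded at 2000/well in Advanced DMEM/F12 with 10% FBS and attached overnight, then given compound in 1% DMSO final for 72 h at 37 °C, 5% CO2. Viable cells by MTS/PMS read-out, normalised to 1% DMSO as 100% proliferation. IC50 from separate triplicate experiments.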

Assay [6] concerns PC-3 (androgen independent prostate cancer cells). The assay can be described thus: Anti-proliferation activity against PC-3 cells. Conditions: Homo sapiens, PC-3; Table 4, biaryl analogues; n = 3; read-out: IC50 PC-3. Summed up: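 Antiproliferative activity was tested in PC-3 androgen-independent prostate cancer cells. Cells grown at 37° C. with 5% CO2 in Advanced DMEM/F12 (1:1) containing non-essential amino acids, 2 mM L-glutamine, streptomycin, penicillin and 10% FBS were plated at 2000/well in 96-well plates. Proliferation was normalized to 1% DMSO controls, and IC50 values from triplicate experiments were fitted in GraphPad Prism.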

Data on six compounds can be found in patent publication US9120774B2 (University of Kansas, priority 2009, dated 2015).

For the compound `COc1ccc(C(=O)Nc2cc3ccc(O[C@@H]4OC(C)(C)[C@H](OC)[C@@H](O)[C@H]4O)c(C)c3oc2=O)cc1-c1ccccc1` [compound 28, N-(7-((2R,3R,4S,5R)-3,4-Dihydroxy-5-methoxy-6,6-dimethyltetrahydro-2H-pyran-2-yloxy)-8-methyl-2-oxo-2H-chromen-3-yl)-6-methoxybiphenyl-3-carboxamide], the IC50 came to 16.5 ± 4.7 µM in assay [1]; 19.5 ± 2.3 µM in assay [2]; 11.4 µM in assay [3]; 2800 ± 400 nM in assay [4]; 1.9 ± 0.2 µM in assay [5]; 25.4 ± 5.2 µM in assay [6].
Turning to `COc1ccc(C(=O)Nc2cc3ccc(O[C@@H]4OC(C)(C)[C@H](OC)[C@@H](O)[C@H]4O)c(C)c3oc2=O)cc1-c1ccccc1C` [compound 29, N-(7-((2R,3R,4S,5R)-3,4-Dihydroxy-5-methoxy-6,6-dimethyltetrahydro-2H-pyran-2-yloxy)-8-methyl-2-oxo-2H-chromen-3-yl)-6-methoxy-2′-methylbiphenyl-3-carboxamide], the IC50 in assay [1] worked out at 32.4 ± 5.1 µM; in assay [2], 18.9 ± 2.7 µM; in assay [3], 37.5 ± 3.4 µM; in assay [4], 6800 ± 1500 nM; in assay [5] it was 22.6 ± 3.3 µM; in assay [6] it was 64.7 ± 17.1 µM.
For `COc1ccc(C(=O)Nc2cc3ccc(O[C@@H]4OC(C)(C)[C@H](OC)[C@@H](O)[C@H]4O)c(C)c3oc2=O)cc1-c1cccc(C)c1` [compound 30, N-(7-((2R,3R,4S,5R)-3,4-Dihydroxy-5-methoxy-6,6-dimethyltetrahydro-2H-pyran-2-yloxy)-8-methyl-2-oxo-2H-chromen-3-yl)-6-methoxy-3′-methylbiphenyl-3-carboxamide], the IC50 in assay [1] is 20.4 ± 3.5 µM; in assay [2], 20.4 ± 0.8 µM; in assay [3] it was 26.4 ± 0.6 µM; in assay [4], 4200 ± 1000 nM; in assay [5] it was 4.2 ± 1.2 µM; in assay [6], 50.7 ± 4.3 µM.
Take `COc1ccc(C(=O)Nc2cc3ccc(O[C@@H]4OC(C)(C)[C@H](OC)[C@@H](O)[C@H]4O)c(C)c3oc2=O)cc1-c1ccc(C)cc1` [compound 31, N-(7-((2R,3R,4S,5R)-3,4-Dihydroxy-5-methoxy-6,6-dimethyltetrahydro-2H-pyran-2-yloxy)-8-methyl-2-oxo-2H-chromen-3-yl)-6-methoxy-4′-methylbiphenyl-3-carboxamide]: the IC50 worked out at 25.4 ± 1.7 µM in assay [1]; 16.7 ± 6.3 µM in assay [2]; 2.4 ± 1 µM in assay [3]; 1400 ± 100 nM in assay [4]; 3.7 ± 0.9 µM in assay [5]; 31.9 ± 10.3 µM in assay [6].
With `COc1cccc(-c2cc(C(=O)Nc3cc4ccc(O[C@@H]5OC(C)(C)[C@H](OC)[C@@H](O)[C@H]5O)c(C)c4oc3=O)ccc2OC)c1` [compound 33, N-(7-((2R,3R,4S,5R)-3,4-Dihydroxy-5-methoxy-6,6-dimethyltetrahydro-2H-pyran-2-yloxy)-8-methyl-2-oxo-2H-chromen-3-yl)-3′,6-dimethoxybiphenyl-3-carboxamide], the IC50 in assay [1] stood at 7.5 ± 1 µM; in assay [2] it was 18.7 ± 1.8 µM; in assay [3], 5.1 ± 1.1 µM; in assay [4] it was 2000 ± 600 nM; in assay [5], 2.1 ± 0.3 µM; in assay [6], 53.3 ± 4.5 µM.
Turning to `COc1ccc(-c2cc(C(=O)Nc3cc4ccc(O[C@@H]5OC(C)(C)[C@H](OC)[C@@H](O)[C@H]5O)c(C)c4oc3=O)ccc2OC)cc1` [compound 34, N-(7-((2R,3R,4S,5R)-3,4-Dihydroxy-5-methoxy-6,6-dimethyltetrahydro-2H-pyran-2-yloxy)-8-methyl-2-oxo-2H-chromen-3-yl)-4′,6-dimethoxybiphenyl-3-carboxamide], the IC50 was determined as 7.8 ± 0.5 µM in assay [1]; 37.9 ± 2.3 µM in assay [2]; 24 ± 0.3 µM in assay [3]; 2600 ± 500 nM in assay [4]; 3.3 ± 0.6 µM in assay [5]; 44 ± 20.3 µM in assay [6].

For orientation: IC50 means the concentration that inhibits the measured activity by half.
